# According to patent US20150148551A1, “GENISTEIN FOR REDUCING LEVELS OF STORAGE COMPOUNDS IN THE TREATMENT AND/OR PREVENTION OF LYSOSOMAL STORAGE DISEASES (LSDS)” (3G THERAPEUTICS, INC., priority 2012, published 2015):
# Key:
# Assay type in all cases: cell-based, human
# CHST14 = test: DNA microarray, CHST14 expression in fibroblasts exposed to genistein
# Description: (§1) The experiments were conducted to characterise the transcriptomic profile of human fibroblast cells exposed to genistein, and in particular to determine the expression of genes encoding lysosomal enzymes involved in metabolism (i.e. synthesis and degradation) of organic substances. The absence or deficiency of these enzymes' activity is responsible for occurrence of various lysosomal storage diseases (LSD) (including MPS). The tested hypothesis assumed that genistein influences the expression of many genes, among which there are genes coding for enzymes required in metabolism of compounds, which are pathologically stored in LSD. The results provide important information regarding genistein action on the molecular level within the range of gene expression modulation by this substance. The experiment was conducted in biological quintuplicates. Human dermal fibroblasts (HDFa) were exposed in vitro for 1, 24 or 48 hours to: 30, 60 or 100 μM of genistein; 0.05% DMSO (K1); or were untreated (control cells) (K2), and total RNA was isolated and analysed.
# (§2) Fibroblast cells were grown in Dulbecco (DMEM) medium supplemented with 10% fetal bovine serum (FBS) with the addition of 1% antibiotics and anti-fungal agents at 37° C. in humidified atmosphere of 5% CO2, until the required confluency was obtained.
# (§3) To determine the effect of tested compound on the transcriptom of the fibroblast cells, the growth medium was replaced with fresh medium, either non-supplemented (0.05% DMSO), or containing genistein (30, 60 or 100 μM, in 0.05% DMSO). The exposure was done for 1, 24 or 48 hours.
# (§4) Total RNA was isolated from fibroblasts using High Pure RNA Isolation Kit according to the protocol and then it was quantitatively evaluated using Quant-It™ RiboGreen® Assay Kit.
# (§5) Biotinylated cRNA was prepared using Ambion Total PrepAmp Kit for Illumina arrays.
# (§6) Standard hybridization and quantitative image analysis procedures—Illumina hybridization protocol and Illumina scanning protocol, were used.
# (§7) Processing of the results was done during data definition, including: background correction (using background subtraction method), normalization (using quantile normalization algorithm with Illumina GenomeStudio software package: gene expression module version 1.9.0) and summarization (using method, which sums the values of signal intensities from a set of probes).
# CTSK = test: DNA microarray, CTSK expression in fibroblasts exposed to genistein; settings: for CTSK fold change Average: 48 h vs DMSO
# Description: as §1, §2, §3, §4, §5, §6, §7
# MAN2B1 = test: DNA microarray, MAN2B1 expression in fibroblasts exposed to genistein; settings: for MAN2B1 fold change Average: 48 h vs DMSO
# Description: as §1, §2, §3, §4, §5, §6, §7
# CTSA = test: DNA microarray, CTSA expression in fibroblasts exposed to genistein; settings: for CTSA fold change Average: 48 h vs DMSO
# Description: as §1, §2, §3, §4, §5, §6, §7
# SUMF1 = test: DNA microarray, SUMF1 expression in fibroblasts exposed to genistein; settings: for SUMF1 fold change Average: 48 h vs DMSO
# Description: as §1, §2, §3, §4, §5, §6, §7
# SLC11A2 = test: DNA microarray, SLC11A2 expression in fibroblasts exposed to genistein; settings: for SLC11A2 fold change Average: 48 h vs DMSO
# Description: as §1, §2, §3, §4, §5, §6, §7
# NPC1 = test: DNA microarray, NPC1 expression in fibroblasts exposed to genistein; settings: for NPC1 fold change Average: 48 h vs DMSO
# Description: as §1, §2, §3, §4, §5, §6, §7
# GBA = test: DNA microarray, GBA expression in fibroblasts exposed to genistein
# Description: as §1, §2, §3, §4, §5, §6, §7
smiles,measurement,setting,value
"O=c1c(-c2ccc(O)cc2)coc2cc(O)cc(O)c12 [genistein, 4′,5,7-trihydroxy-3-phenylchromen-4-one]",CHST14 fold change Average 1h30/1hK1,"CHST14; 30 μM, 1 h vs 0.05% DMSO",1.007 fold change
same,CHST14 fold change Average 24h30/24hK1,"CHST14; 30 μM, 24 h vs 0.05% DMSO",0.8234 fold change
same,CHST14 fold change Average 48h30/48hK1,"CHST14; 30 μM, 48 h vs 0.05% DMSO",0.9217 fold change
same,CHST14 fold change Average 1h60/1hK1,"CHST14; 60 μM, 1 h vs 0.05% DMSO",0.851 fold change
same,CHST14 fold change Average 24h60/24hK1,"CHST14; 60 μM, 24 h vs 0.05% DMSO",0.8184 fold change
same,CHST14 fold change Average 48h61/48hK1,"CHST14; 60 μM, 48 h vs 0.05% DMSO",0.8526 fold change
same,CHST14 fold change Average 1h100/1hK1,"CHST14; 100 μM, 1 h vs 0.05% DMSO",1.06 fold change
same,CHST14 fold change Average 24h100/24hK1,"CHST14; 100 μM, 24 h vs 0.05% DMSO",0.8438 fold change
same,CHST14 fold change Average 48h100/48hK1,"CHST14; 100 μM, 48 h vs 0.05% DMSO",0.6534 fold change
same,CTSK fold change Average 1h30/1hK1,"CTSK; 30 μM, 1 h vs 0.05% DMSO",0.9778 fold change
same,CTSK fold change Average,CTSK; 30 μM,1.2621 fold change
same,CTSK fold change Average 1h60/1hK1,"CTSK; 60 μM, 1 h vs 0.05% DMSO",1.108 fold change
same,CTSK fold change Average,CTSK; 60 μM,1.387 fold change
same,CTSK fold change Average 1h100/1hK1,"CTSK; 100 μM, 1 h vs 0.05% DMSO",0.9868 fold change
same,CTSK fold change Average,CTSK; 100 μM,1.541 fold change
same,MAN2B1 fold change Average 1h30/1hK1,"MAN2B1; 30 μM, 1 h vs 0.05% DMSO",1.0342 fold change
same,MAN2B1 fold change Average,MAN2B1; 30 μM,1.036 fold change
same,MAN2B1 fold change Average 1h60/1hK1,"MAN2B1; 60 μM, 1 h vs 0.05% DMSO",0.8507 fold change
same,MAN2B1 fold change Average,MAN2B1; 60 μM,1.586 fold change
same,MAN2B1 fold change Average 1h100/1hK1,"MAN2B1; 100 μM, 1 h vs 0.05% DMSO",0.9864 fold change
same,MAN2B1 fold change Average,MAN2B1; 100 μM,1.924 fold change
same,CTSA fold change Average 1h30/1hK1,"CTSA; 30 μM, 1 h vs 0.05% DMSO",1.0199 fold change
same,CTSA fold change Average,CTSA; 30 μM,1.3019 fold change
same,CTSA fold change Average 1h60/1hK1,"CTSA; 60 μM, 1 h vs 0.05% DMSO",0.9816 fold change
same,CTSA fold change Average,CTSA; 60 μM,1.637 fold change
same,CTSA fold change Average 1h100/1hK1,"CTSA; 100 μM, 1 h vs 0.05% DMSO",0.9643 fold change
same,CTSA fold change Average,CTSA; 100 μM,1.571 fold change
same,SUMF1 fold change Average 1h30/1hK1,"SUMF1; 30 μM, 1 h vs 0.05% DMSO",1.1314 fold change
same,SUMF1 fold change Average,SUMF1; 30 μM,1.2364 fold change
same,SUMF1 fold change Average 1h60/1hK1,"SUMF1; 60 μM, 1 h vs 0.05% DMSO",1.158 fold change
same,SUMF1 fold change Average,SUMF1; 60 μM,1.849 fold change
same,SUMF1 fold change Average 1h100/1hK1,"SUMF1; 100 μM, 1 h vs 0.05% DMSO",1.095 fold change
same,SUMF1 fold change Average,SUMF1; 100 μM,1.705 fold change
same,SLC11A2 fold change Average 1h30/1hK1,"SLC11A2; 30 μM, 1 h vs 0.05% DMSO",1.0227 fold change
same,SLC11A2 fold change Average,SLC11A2; 30 μM,1.2196 fold change
same,SLC11A2 fold change Average 1h60/1hK1,"SLC11A2; 60 μM, 1 h vs 0.05% DMSO",1.053 fold change
same,SLC11A2 fold change Average,SLC11A2; 60 μM,1.549 fold change
same,SLC11A2 fold change Average 1h100/1hK1,"SLC11A2; 100 μM, 1 h vs 0.05% DMSO",1.056 fold change
same,SLC11A2 fold change Average,SLC11A2; 100 μM,1.499 fold change
same,NPC1 fold change Average 1h30/1hK1,"NPC1; 30 μM, 1 h vs 0.05% DMSO",0.9973 fold change
same,NPC1 fold change Average,NPC1; 30 μM,1.567 fold change
same,NPC1 fold change Average 1h60/1hK1,"NPC1; 60 μM, 1 h vs 0.05% DMSO",1.035 fold change
same,NPC1 fold change Average,NPC1; 60 μM,1.875 fold change
same,NPC1 fold change Average 1h100/1hK1,"NPC1; 100 μM, 1 h vs 0.05% DMSO",0.9825 fold change
same,NPC1 fold change Average,NPC1; 100 μM,2.269 fold change
same,GBA fold change Average 1h30/1hK1,"GBA; 30 μM, 1 h vs 0.05% DMSO",0.9138 fold change
same,GBA fold change Average,"GBA; 30 μM, 48 h vs DMSO",1.257 fold change
same,GBA fold change Average 1h60/1hK1,"GBA; 60 μM, 1 h vs 0.05% DMSO",1.033 fold change
